The experiment concerns the target T1, Prostaglandin G/H synthase 2 (Homo sapiens, UniProt P35354).
T1 sequence (P35354 whole entry): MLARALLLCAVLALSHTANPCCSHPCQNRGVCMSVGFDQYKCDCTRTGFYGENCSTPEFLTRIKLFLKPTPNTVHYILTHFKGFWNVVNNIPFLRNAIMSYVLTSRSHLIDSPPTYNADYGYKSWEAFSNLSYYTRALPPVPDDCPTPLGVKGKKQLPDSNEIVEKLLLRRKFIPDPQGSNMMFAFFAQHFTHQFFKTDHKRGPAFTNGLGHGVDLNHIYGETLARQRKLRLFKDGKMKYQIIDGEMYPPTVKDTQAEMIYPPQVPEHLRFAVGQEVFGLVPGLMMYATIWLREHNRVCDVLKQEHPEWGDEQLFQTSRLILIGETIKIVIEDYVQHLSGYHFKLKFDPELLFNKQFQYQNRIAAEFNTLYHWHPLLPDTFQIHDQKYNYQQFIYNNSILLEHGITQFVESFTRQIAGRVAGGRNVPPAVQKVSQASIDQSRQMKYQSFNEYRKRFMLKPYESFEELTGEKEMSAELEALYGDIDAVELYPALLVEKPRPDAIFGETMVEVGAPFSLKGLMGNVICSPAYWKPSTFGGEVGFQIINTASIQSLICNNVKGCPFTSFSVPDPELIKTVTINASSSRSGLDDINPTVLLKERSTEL
The experiment in a line: Inhibition of recombinant human COX2 expressed in baculovirus infected Sf9 insect cells using arachidonic acid as substrate preincubated for 10 mins followed by substrate addition and measured after 10 mins by ELISA.

Regarding `CCC(=O)NS(=O)(=O)c1ccc(-c2c(-c3ccccc3)noc2C)cc1` [PARECOXIB], the IC50 was 5 nM.

For the origin of these results see ChEMBL document CHEMBL4325858, “Quantitative and systems pharmacology 4. Network-based analysis of drug pleiotropy on coronary artery disease” (Eur J Med Chem, 2019).
